TGI and GI50 data for twelve compounds are collected here from PubChem BioAssay (NCI).

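Where inhibition never reached the appropriate level, the endpoint shown equals the highest concentration tested. Otherwise, values were interpolated linearly from a five-concentration, 48-hour dose response in 96-well plates. GI50: concentration for 50% inhibition of growth. Definition used: TGI = concentration required for complete inhibition of growth.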

Common to all, as to test: NCI-60 cell line screen, 48 h
The subject of test [1] is HOP-62 NSCLC.
For test [2], the system named is SN12C renal.
The subject of test [3] is MOLT-4 leukemia.
Test [4] relates to LOX IMVI melanoma.
Test [5] deals with ACHN renal.
The test system of test [6] is RXF 393 renal.
Test [7] concerns NCI-H460 lung.
Test [8] relates to HCT-116 colon.
Test [9] deals with TK-10 renal.
In test [10] the test system is NCI-H226 lung.

For `C[P+]1(Cc2ccccc2)CCCC1`, the TGI in test [1], in test [2], in test [3], in [4], in test [5] and in [6] was more than 100 µM in each case. The TGI in [7], in test [8], in test [9] and in test [10] was more than 100 µM throughout.

For `CN(C)NC1=C([N+](=O)[O-])C=NN(c2ccccc2)C1`, the TGI in test [1] is 4.33 µM; in test [2] it was 3.22 µM; in test [3] it was 5.05 µM; in [4], 3.11 µM; in test [5] it was 3.18 µM; in test [6], 3.46 µM. For the same compound, the TGI in [7] was 4.1 µM; in test [8], 3.26 µM; in [9] it was 11.8 µM; in test [10], 15.1 µM.

For the compound `Brc1ccccc2cc(-c3ccccc3)nc1-2`, the TGI in test [1] is 42.9 µM; in test [2], 19.4 µM; in test [3] it was more than 92.3 µM; in test [4], 21.4 µM; in [5] it was 20.6 µM; in test [6], 16.7 µM. The TGI in test [7] was 73.5 µM; in [8] it was 10.5 µM; in [9], 30.8 µM; in test [10] it was 37.7 µM.

Turning to `Cn1c(CCCC(=O)O)nc2cc(N(CCCl)CCCl)ccc21`, the GI50 is more than 76.3 µM in test [1]; 45.1 µM in test [2]; 3.6 µM in test [3]; more than 58.8 µM in test [4]; more than 77.3 µM in [5]; more than 100 µM in test [6]. The GI50 in test [7] is 58.7 µM; in [8], more than 80.5 µM; in test [9], more than 91.3 µM; in [10] it was more than 66.2 µM. Also, the TGI was more than 100 µM in test [1]; more than 100 µM in test [2]; 22.6 µM in [3]; more than 100 µM in test [4]; more than 100 µM in test [5]; more than 100 µM in test [6]. The TGI in test [7], in [8], in test [9] and in test [10] was more than 100 µM throughout.

In the case of `O=C(Oc1ccccc1)N(c1ccccc1)c1ccccc1`, the GI50 in [1] was 32.2 µM; in [2], 27.7 µM; in test [3], 28.3 µM; in [4], 19.9 µM; in test [5], 28.8 µM; in [6], 25.8 µM. The GI50 was 26.4 µM in [7], 18.6 µM in [8], 37.1 µM in [9] and 33.7 µM in test [10]. The TGI is more than 100 µM in test [1]; more than 100 µM in test [2]; more than 100 µM in test [3]; 78.6 µM in test [4]; more than 100 µM in [5]; 92.6 µM in test [6]. The TGI in [7] was 89.2 µM; in [8], 76.8 µM; in test [9] it was more than 100 µM; in [10], more than 100 µM.

On to `CCOc1cc(-c2nncn2C)ccc1Nc1ncc2cc(C)nc(NCC(C)(C)C)c2n1`, for which the GI50 in test [1] is more than 26.2 µM; in test [2] it was more than 100 µM; in test [4], 1.1 µM; in test [6], 2.33 µM; in test [7] it was 0.535 µM; in [8], 0.0849 µM. For the same compound, the results for the GI50 in test [9] and in test [10] were more than 100 µM and more than 23.5 µM, respectively. Moreover, the TGI in [1], in test [2], in test [3], in [4], in test [5] and in [6] was more than 100 µM each time. Also, the TGI in test [7], in test [8], in test [9] and in test [10] was more than 100 µM throughout.

Turning to `CC(=O)OCC1OC(n2cccnc2=O)C(OC(C)=O)C1OC(C)=O` (stereo not drawn), the TGI in [1], in test [2], in test [3], in test [4], in [5] and in test [6] was more than 100 µM in each case. The TGI in test [7], in test [8], in [9] and in [10] was more than 100 µM throughout.

Regarding `CC[C@@H](C)/C=C(C)/C=C/C(=O)c1c(O)c(-c2ccc(OC(=O)[C@@]34CC[C@@](C)(C(=O)O3)C4(C)C)cc2)cn(O)c1=O`, the GI50 in test [1] is 2.05 µM; in test [2], 2.47 µM; in [3] it was 1.04 µM; in [4], 0.961 µM; in [5], 1.32 µM; in [6] it was 1.81 µM. Further, the GI50 is 1.28 µM in test [7], 1.47 µM in [8], 1.99 µM in test [9] and 1.39 µM in test [10]. The TGI is more than 50 µM in [1]; more than 50 µM in test [2]; more than 50 µM in [3]; more than 50 µM in [4]; 11.6 µM in test [5]; more than 50 µM in test [6]. Also, the TGI in test [7] was 7.56 µM; in test [8], more than 50 µM; in [9], more than 50 µM; in test [10], more than 50 µM.

For `CC1(C)C(=O)OC(n2cc(F)c(=O)[nH]c2=O)C1=O` (stereo not drawn), the TGI in test [1], in test [2], in test [3], in test [4], in test [5] and in [6] was more than 100 µM throughout. The TGI in test [7], in test [8], in [9] and in [10] was more than 100 µM each time.

As to `CCOC(=O)c1cc(=O)n(C)c(=O)n1C`, the TGI in test [1], in test [2], in [3], in test [4], in test [5] and in [6] was more than 100 µM in each case. The TGI in test [7], in test [8], in test [9] and in [10] was more than 100 µM throughout.

As for `O=C1C=C(NCCO)c2nccc3c2c1nc1ccccc13`, the GI50 in [1] is 12.3 µM; in test [2], 18.2 µM; in [3], 5.94 µM; in test [4], 15.8 µM; in test [5], 16.3 µM; in test [6], 28.2 µM. In addition, the GI50 in test [7] was 6.04 µM; in test [8], 11.5 µM; in test [9], 18.7 µM; in test [10], 14.8 µM. The TGI is 57.8 µM in [1]; more than 100 µM in test [2]; more than 100 µM in [3]; 95 µM in [4]; more than 100 µM in test [5]; 89.4 µM in test [6]. Also, the TGI in [7] was 40.9 µM; in [8] it was 38.7 µM; in test [9] it was 60.8 µM; in [10], 59.5 µM.

In the case of `C[C@@H](Nc1cc(F)cc(F)c1)c1cc(C(=O)N(C)C)cc2c(=O)cc(N3CCOCC3)oc12`, the GI50 in test [1] was 7.13 µM; in test [2] it was 7.14 µM; in test [3], 2.06 µM; in [4] it was 8.72 µM; in test [5] it was 3.51 µM; in test [6], 0.0251 µM. For the same compound, the GI50 in test [7] is 5.61 µM; in test [8], 10.2 µM; in test [9], 2.64 µM; in [10] it was more than 88.2 µM. Also, the TGI is more than 100 µM in test [1]; more than 100 µM in test [2]; 52.6 µM in [3]; more than 100 µM in test [4]; more than 100 µM in test [5]; 0.973 µM in test [6]. For the same compound, the TGI in [7], in [8], in test [9] and in test [10] was more than 100 µM in each case.
